Reference: the NIST ThermoML archive (doi:10.1021/je800248w)

Assays:
[1] = excess molar enthalpy (molar enthalpy of mixing); xn = mol fraction of the nth substance listed; conditions: 101 kPa, Liquid, Calvet calorimetry
[2] = molar heat capacity at constant pressure; xn = mol fraction of the nth substance listed; conditions: 101.3 kPa, Liquid, Small sample (50 mg) DSC

CCn1cc[n+](C)c1.O=S(=O)([O-])C(F)(F)F [1-ethyl-3-methylimidazolium trifluoromethanesulfonate] + O
Conditions | excess molar enthalpy [kcal/mol] | molar heat capacity at constant pressure [J/K/mol]
[1], 313.13 K, x2 = 0.2487 | 0.168 | –
[1], 313.13 K, x2 = 0.2495 | 0.168 | –
[1], 313.13 K, x2 = 0.4958 | 0.269 | –
[1], 313.13 K, x2 = 0.4972 | 0.269 | –
[1], 313.13 K, x2 = 0.7477 | 0.242 | –
[1], 323.12 K, x2 = 0.2476 | 0.166 | –
[1], 323.12 K, x2 = 0.2495 | 0.167 | –
[1], 323.12 K, x2 = 0.4959 | 0.276 | –
[1], 323.12 K, x2 = 0.4969 | 0.275 | –
[1], 323.12 K, x2 = 0.7471 | 0.259 | –
[1], 323.12 K, x2 = 0.7474 | 0.258 | –
[1], 333.13 K, x2 = 0.2482 | 0.167 | –
[1], 333.13 K, x2 = 0.2485 | 0.167 | –
[1], 333.13 K, x2 = 0.495 | 0.283 | –
[1], 333.13 K, x2 = 0.4986 | 0.284 | –
[1], 333.13 K, x2 = 0.7477 | 0.277 | –
[1], 333.13 K, x2 = 0.7479 | 0.276 | –
[1], 348.12 K, x2 = 0.2497 | 0.168 | –
[1], 348.12 K, x2 = 0.2514 | 0.169 | –
[1], 348.12 K, x2 = 0.4967 | 0.297 | –
[1], 348.12 K, x2 = 0.4985 | 0.298 | –
[1], 348.12 K, x2 = 0.748 | 0.308 | –
[1], 348.12 K, x2 = 0.7481 | 0.307 | –
[2], 283.15 K, x2 = 0 | – | 353
[2], 283.15 K, x2 = 0.2259 | – | 283
[2], 283.15 K, x2 = 0.4351 | – | 226
[2], 283.15 K, x2 = 0.6152 | – | 181
[2], 283.15 K, x2 = 0.7835 | – | 135
[2], 283.15 K, x2 = 0.8614 | – | 114
[2], 283.15 K, x2 = 0.9353 | – | 94
[2], 283.15 K, x2 = 0.9712 | – | 80
[2], 283.15 K, x2 = 0.9924 | – | 76
[2], 293.15 K, x2 = 0 | – | 358
[2], 293.15 K, x2 = 0.2259 | – | 287
[2], 293.15 K, x2 = 0.4351 | – | 230
[2], 293.15 K, x2 = 0.6152 | – | 184
[2], 293.15 K, x2 = 0.7835 | – | 137
[2], 293.15 K, x2 = 0.8614 | – | 115
[2], 293.15 K, x2 = 0.9353 | – | 95
[2], 293.15 K, x2 = 0.9712 | – | 81
[2], 293.15 K, x2 = 0.9924 | – | 77
[2], 303.15 K, x2 = 0 | – | 366
[2], 303.15 K, x2 = 0.2259 | – | 294
[2], 303.15 K, x2 = 0.4351 | – | 236
[2], 303.15 K, x2 = 0.6152 | – | 189
[2], 303.15 K, x2 = 0.7835 | – | 140
[2], 303.15 K, x2 = 0.8614 | – | 118
[2], 303.15 K, x2 = 0.9353 | – | 97
[2], 303.15 K, x2 = 0.9712 | – | 83
[2], 303.15 K, x2 = 0.9924 | – | 78
[2], 313.15 K, x2 = 0 | – | 371
[2], 313.15 K, x2 = 0.2259 | – | 298
[2], 313.15 K, x2 = 0.4351 | – | 239
[2], 313.15 K, x2 = 0.6152 | – | 191
[2], 313.15 K, x2 = 0.7835 | – | 142
[2], 313.15 K, x2 = 0.8614 | – | 120
[2], 313.15 K, x2 = 0.9353 | – | 98
[2], 313.15 K, x2 = 0.9712 | – | 83
[2], 313.15 K, x2 = 0.9924 | – | 78
[2], 323.15 K, x2 = 0 | – | 376
[2], 323.15 K, x2 = 0.2259 | – | 302
[2], 323.15 K, x2 = 0.4351 | – | 242
[2], 323.15 K, x2 = 0.6152 | – | 193
[2], 323.15 K, x2 = 0.7835 | – | 144
[2], 323.15 K, x2 = 0.8614 | – | 122
[2], 323.15 K, x2 = 0.9353 | – | 99
[2], 323.15 K, x2 = 0.9712 | – | 84
[2], 323.15 K, x2 = 0.9924 | – | 78
[2], 333.15 K, x2 = 0 | – | 380
[2], 333.15 K, x2 = 0.2259 | – | 306
[2], 333.15 K, x2 = 0.4351 | – | 245
[2], 333.15 K, x2 = 0.6152 | – | 195
[2], 333.15 K, x2 = 0.7835 | – | 146
[2], 333.15 K, x2 = 0.8614 | – | 123
[2], 333.15 K, x2 = 0.9353 | – | 99
[2], 333.15 K, x2 = 0.9712 | – | 85
[2], 333.15 K, x2 = 0.9924 | – | 79
[2], 343.15 K, x2 = 0 | – | 384
[2], 343.15 K, x2 = 0.2259 | – | 311
[2], 343.15 K, x2 = 0.4351 | – | 249
[2], 343.15 K, x2 = 0.6152 | – | 197
[2], 343.15 K, x2 = 0.7835 | – | 148
[2], 343.15 K, x2 = 0.8614 | – | 125
[2], 343.15 K, x2 = 0.9353 | – | 100
[2], 343.15 K, x2 = 0.9712 | – | 85
[2], 343.15 K, x2 = 0.9924 | – | 79
